Literature values in patent US20240298642A1, “Herbicidal Compositions Comprising Fluazifop And Triclopyr” (Bayer CropScience LP, priority 2023, published 2024).

Conditions: neat solvent

Row | flash point [°C] | SMILES
1 | 65 | CCCCCCO [Composition 1-hexanol, 1-hexanol]
2 | 81 | CCCCCCCCO [Composition 1-octanol, 1-octanol]
